Results: publication PMC10066365, “Nemacol is a small molecule inhibitor of C. elegans vesicular acetylcholine transporter with anthelmintic potential” (Nature Communications, 2023)
“And” between values parts separate entries of the source, which are not always exact repeats. Equal entries are not always repeated. Where two headings read alike, the source gives them in different places.

Legend:
[1] = tested on: Dirofilaria immitis microfilariae; experiment: Dirofilaria immitis microfilariae immobility assay (DiroImager, 72 h); conditions: Dirofilaria immitis microfilariae
Procedure, shortened: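 About 250 freshly purified microfilariae of the Missouri isolate per well in supplemented RPMI 1640, exposed to compound for 72 h. Motility scored by automated whole-plate optical imaging; medium with 1% DMSO as negative control.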

C. elegans = C. elegans motor phenotype scoring on solid media (Punc/jerky-unc, coiled, paralyzed), wild-type young adults; type: in vivo, Caenorhabditis elegans; conditions: for atypical locomotion (number of animals) / coiled (number of animals) / no phene (number of animals) / paralyzed (number of animals) / any phene: mean % fraction of young adults exhibiting any phenotype (coiled, jerky-Unc or paralyzed): one hour; for atypical locomotion (number of animals) / coiled (number of animals) / no phene (number of animals) / paralyzed (number of animals): young adults, 20 animals per trial, single technical replicate; for any phene: mean % fraction of young adults exhibiting any phenotype (coiled, jerky-Unc or paralyzed): mean of three biological replicates
Pristionchus pacificus = Pristionchus pacificus motor disruption dose-response on solid media, 1 h; conditions: for mean % any phene: any phenotype (coiled, jerky-Unc or paralyzed) at one hour, mean of three biological replicates; for rep 1 atypical locomotion / rep 1 coiled / rep 1 no phene / rep 1 paralyzed / rep 2 atypical locomotion / rep 2 coiled / rep 2 no phene / rep 2 paralyzed / rep 3 atypical locomotion / rep 3 coiled / rep 3 no phene / rep 3 paralyzed: count of 20 animals per trial, one hour
[2] = tested on: Dirofilaria immitis L3/L4; experiment: Dirofilaria immitis L3/L4 motility assay (DiroImager, 72 h); conditions: Dirofilaria immitis L4
rat VAChT = biological target: T1, rat VAChT (Rattus norvegicus, UniProt Q62666); experiment: [3H]Vesamicol competitive radioligand binding, PC12 cells expressing ratVAChT
T1 construct: expressed in transfected cells; host or cells: rat PC12 (PC12 A123.7) cells, stably transfected; shared by Dr. Ali Roghani (Texas Tech University)
T1 sequence (Q62666 1-530): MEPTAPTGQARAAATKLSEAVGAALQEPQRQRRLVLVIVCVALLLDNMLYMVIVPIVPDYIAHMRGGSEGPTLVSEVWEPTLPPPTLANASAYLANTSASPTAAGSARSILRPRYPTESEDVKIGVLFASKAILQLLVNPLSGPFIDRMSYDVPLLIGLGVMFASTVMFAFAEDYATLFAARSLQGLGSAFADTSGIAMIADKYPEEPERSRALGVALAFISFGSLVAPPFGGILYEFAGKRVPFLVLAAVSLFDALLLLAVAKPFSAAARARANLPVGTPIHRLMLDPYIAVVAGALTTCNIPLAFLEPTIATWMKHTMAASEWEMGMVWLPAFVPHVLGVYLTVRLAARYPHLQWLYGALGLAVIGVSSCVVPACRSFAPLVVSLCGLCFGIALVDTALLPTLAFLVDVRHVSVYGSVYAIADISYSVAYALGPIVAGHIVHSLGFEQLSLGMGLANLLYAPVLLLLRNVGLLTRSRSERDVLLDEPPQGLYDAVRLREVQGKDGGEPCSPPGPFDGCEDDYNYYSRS

## CC1CCC(N2CCN(c3ccccc3)CC2)CC1 (stereo not shown) [Nemacol-50]
[1]; 0.016 µM
  % effect (motility), DIROIM MF: 0%
[1]; 0.08 µM
  % effect (motility), DIROIM MF: 0%
[1]; 0.4 µM
  % effect (motility), DIROIM MF: 0%
[1]; 2 µM
  % effect (motility), DIROIM MF: 0%
[1]; 10 µM
  % effect (motility), DIROIM MF: 0%
C. elegans; 3.75uM
  atypical locomotion (number of animals): 8 and 14 and 7 and 18 and 16
  coiled (number of animals): 0 and 1
  no phene (number of animals): 11 and 5 and 12 and 13 and 2 and 4
  paralyzed (number of animals): 1 and 0
  any phene: mean % fraction of young adults exhibiting any phenotype (coiled, jerky-Unc or paralyzed): 60.8333%
C. elegans; 15uM
  atypical locomotion (number of animals): 10 and 12 and 11 and 17 and 7 and 5
  coiled (number of animals): 1 and 0 and 7 and 3 and 4
  no phene (number of animals): 2 and 0
  paralyzed (number of animals): 7 and 8 and 0 and 9 and 12
  any phene: mean % fraction of young adults exhibiting any phenotype (coiled, jerky-Unc or paralyzed): 96.6667%
C. elegans; 60uM
  atypical locomotion (number of animals): 1 and 3 and 0 and 6 and 5 and 2
  coiled (number of animals): 8 and 11 and 14 and 5 and 6
  no phene (number of animals): 1 and 0
  paralyzed (number of animals): 10 and 6 and 12
  any phene: mean % fraction of young adults exhibiting any phenotype (coiled, jerky-Unc or paralyzed): 99.1667%
C. elegans; Caenorhabditis elegans, any motor phenotype after 1 h on solid media, ± 95% CI, read-out: C. elegans - motor disruption EC50
  EC50: 3000 ± 1300 nM
Pristionchus pacificus; Pristionchus pacificus, 1 h, read-out: P. pacificus motor disruption EC50
  EC50: 49200 nM
Pristionchus pacificus; conc 3.75
  mean % any phene: 0%
  rep 1 atypical locomotion: 0
  rep 1 coiled: 0
  rep 1 no phene: 20
  rep 1 paralyzed: 0
  rep 2 atypical locomotion: 0
  rep 2 coiled: 0
  rep 2 no phene: 20
  rep 2 paralyzed: 0
  rep 3 atypical locomotion: 0
  rep 3 coiled: 0
  rep 3 no phene: 20
  rep 3 paralyzed: 0
Pristionchus pacificus; conc 15
  mean % any phene: 0%
  rep 1 atypical locomotion: 0
  rep 1 coiled: 0
  rep 1 no phene: 20
  rep 1 paralyzed: 0
  rep 2 atypical locomotion: 0
  rep 2 coiled: 0
  rep 2 no phene: 20
  rep 2 paralyzed: 0
  rep 3 atypical locomotion: 0
  rep 3 coiled: 0
  rep 3 no phene: 20
  rep 3 paralyzed: 0
Pristionchus pacificus; conc 60
  mean % any phene: 98.3333%
  rep 1 atypical locomotion: 9 and 5
  rep 1 coiled: 4 and 2
  rep 1 no phene: 0
  rep 1 paralyzed: 7 and 13
  rep 2 atypical locomotion: 7 and 10
  rep 2 coiled: 4 and 2
  rep 2 no phene: 0
  rep 2 paralyzed: 9 and 8
  rep 3 atypical locomotion: 11 and 13
  rep 3 paralyzed: 6 and 4
[2]; 2 µM
  % effect (motility), DIROIM L4: 0%
[2]; 10 µM
  % effect (motility), DIROIM L4: 0%
[2]; 50 µM
  % effect (motility), DIROIM L4: 5%
Rat VAChT; [3H]Vesamicol binding, PC12, experiment 1, read-out: expt 1 Ki (M) vs. rat VAChT (PC12)
  Ki: 1.82e-06 M
Rat VAChT; [3H]Vesamicol binding, PC12, experiment 2, read-out: expt 2 Ki (M) vs. rat VAChT (PC12)
  Ki: 2.05e-06 M
Rat VAChT; [3H]Vesamicol binding, PC12, third experiment column (date expt 3), read-out: expt 2 Ki (M) vs. rat VAChT (PC12)
  Ki: 1.95e-06 M
Rat VAChT; [3H]Vesamicol binding, rat VAChT (PC12), mean of 2-3 experiments, read-out: mean Ki
  Ki: 1.94e-06 M
Rat VAChT; [3H]Vesamicol displacement, mean, read-out: ratVAChT Ki
  Ki: 1.94e-06 M
